Results published in patent US9382216B2, “Substituted morpholines as modulators for the calcium sensing receptor” (LUPIN LIMITED, priority 2011, dated 2016).
Where a name gives a salt, the structure may show the parent alone.

Target: T1, hCaSR (Calcium sensing receptor) in stably transfected HEK293 cells (Homo sapiens, UniProt P41180)
T1 construct: expressed in transfected cells; host or cells: HEK293 (stably transfected)
T1 sequence (P41180 20-1078): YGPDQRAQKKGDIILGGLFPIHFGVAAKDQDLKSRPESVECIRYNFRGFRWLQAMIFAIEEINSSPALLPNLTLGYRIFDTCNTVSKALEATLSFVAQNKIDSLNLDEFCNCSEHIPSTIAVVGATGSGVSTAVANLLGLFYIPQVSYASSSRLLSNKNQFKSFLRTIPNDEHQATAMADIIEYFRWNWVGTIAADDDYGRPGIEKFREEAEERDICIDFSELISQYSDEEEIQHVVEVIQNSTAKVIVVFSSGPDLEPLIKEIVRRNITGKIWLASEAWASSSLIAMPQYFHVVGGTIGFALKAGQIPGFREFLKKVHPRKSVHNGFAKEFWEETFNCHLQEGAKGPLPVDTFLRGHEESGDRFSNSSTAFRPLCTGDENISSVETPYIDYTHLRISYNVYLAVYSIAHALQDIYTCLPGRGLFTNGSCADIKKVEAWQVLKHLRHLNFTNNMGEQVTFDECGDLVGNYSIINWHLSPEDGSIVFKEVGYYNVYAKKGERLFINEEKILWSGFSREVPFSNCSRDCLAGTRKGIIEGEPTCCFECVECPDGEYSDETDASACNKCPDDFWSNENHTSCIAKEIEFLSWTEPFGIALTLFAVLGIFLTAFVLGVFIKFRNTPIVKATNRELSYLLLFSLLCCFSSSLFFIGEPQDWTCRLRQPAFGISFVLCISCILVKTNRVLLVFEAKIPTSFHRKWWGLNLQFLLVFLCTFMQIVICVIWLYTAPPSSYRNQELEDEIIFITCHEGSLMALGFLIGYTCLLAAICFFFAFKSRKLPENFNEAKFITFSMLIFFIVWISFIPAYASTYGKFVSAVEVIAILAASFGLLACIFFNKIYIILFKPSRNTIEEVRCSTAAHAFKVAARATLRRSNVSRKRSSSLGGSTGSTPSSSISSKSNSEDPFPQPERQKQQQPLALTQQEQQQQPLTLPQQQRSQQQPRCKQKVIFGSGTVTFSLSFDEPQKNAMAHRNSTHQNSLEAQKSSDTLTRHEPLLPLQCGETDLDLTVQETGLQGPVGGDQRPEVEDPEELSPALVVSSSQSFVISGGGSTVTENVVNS
Assay: In-vitro assay of calcimimetics through modulation of calcium sensing receptor (CaSR): increase in intracellular calcium, FLIPR
Assay type: cell-based
Settings: HEK293 cells expressing hCaSR; intracellular calcium (Fluo4NW, FLIPR); 0.3 mM CaCl2; 8-point assay; read-out: EC50 in range
Protocol: In-Vitro Assay Method of Calcimemtics Through Modulation of Calcium Sensing Receptor (CaSR):
The ability of the compounds to modulate Calcium sensing receptor is determined by measuring an increase in intracellular calcium [Ca^2+i]. Stably transfected HEK293 cells expressing hCaSR_pTriEx-3 hygro vector are developed. Cells are grown overnight on a 96-well plate to 80% confluency in Ham's F12 containing 20% FBS at 37° C., 5% CO2 Subsequently, cells are washed extensively with 20 mM HEPES buffer containing 126 mM NaCl2, 1 mM MgCl2 and 4 mM KCl2 to remove serum components that might interfere with the assay. Cells are loaded with calcium sensing Fluo4NW dye in HEPES base buffer containing 0.1% BSA and 1 mg/ml glucose for 30 minutes to measure changes in intracellular calcium. The activities of the compounds are measured in FLIPR using 0.3 mM CaCl2 in 20 mM HEPES base buffer. The effectiveness of the compound to modulate receptor activity is determined by calculating the EC50 responses for that compound in an 8-point assay and plotted using GraphPad Prism 5.
The compounds prepared were tested using the above assay procedure and the results obtained are given below.

Compound | EC50 [nM]
C[C@@H](NCCC1CN(c2ccc(C(=O)O)cc2)CCO1)c1cccc2ccccc12 (single isomer, unassigned) [Example 112a, hydrochloride] | 50 to 200
COc1cccc(N2CCOCC2CN[C@H](C)c2cccc3ccccc23)c1 (single isomer, unassigned) [5a] | 50 to 200
COc1cccc([C@@H](C)NCC2COCCN2Cc2ccccc2)c1 (single isomer, unassigned) [Example-37b] | 50 to 200
COc1ccc(N2CC(CN[C@H](C)c3cccc4ccccc34)OCC2=O)cc1F (stereo partly drawn) [compound 61, 4-(3-Fluoro-4-methoxyphenyl)-6-((((R)-1-(naphthalen-1-yl)ethyl)amino)methyl)morpholin-3-one hydrochloride] | < 20
C[C@@H](NCC1CN(c2ccc(F)c(F)c2)C(=O)CO1)c1cccc2ccccc12 (single isomer, unassigned) [62a, hydrochloride] | < 20
COc1cccc([C@@H](C)NCC2CN(c3ccc(F)c(F)c3)CCO2)c1 (stereo partly drawn) [Example 135, (1R)-N-((4-(3,4-Difluorophenyl)morpholin-2-yl)methyl)-1-(3-methoxyphenyl)ethanamine hydrochloride] | < 20
COc1cc([C@@H](C)NCC2CN(c3ccc(F)c(F)c3)C(=O)CO2)ccc1F (single isomer, unassigned) [Example 152b, hydrochloride] | 50 to 200
C[C@@H](NCC1CN(Cc2cccc(F)c2F)C(=O)CO1)c1cccc2ccccc12 (stereo partly drawn) [Example 81, 4-(2,3-Difluorobenzyl)-6-((((R)-1-(naphthalen-1-yl)ethyl)amino)methyl)morpholin-3-one hydrochloride] | < 20
C[C@@H](NCC1CN(c2cccc(F)c2)CCO1)c1cccc2ccccc12 (stereo partly drawn) [Example-3, (1R)-N-((4-(3-Fluorophenyl)morpholin-2-yl)methyl)-1-(naphthalen-1-yl)ethanamine hydrochloride] | 20 to 50
C[C@@H](NCC1CN(Cc2cccc(C(F)(F)F)c2)C(=O)CO1)c1cccc2ccccc12 (single isomer, unassigned) [Example 70a, hydrochloride] | < 20
C[C@@H](NCC1COCCN1Cc1ccccc1)c1cccc2ccccc12 (single isomer, unassigned) [Example-36a] | 50 to 200
C[C@@H](NCC1CN(c2ccc3c(c2)OC(F)(F)O3)C(=O)CO1)c1cccc2ccccc12 (stereo partly drawn) [compound 59, 4-(2,2-Difluorobenzo[d][1,3]dioxol-5-yl)-6-((((R)-1-(naphthalen-1-yl)ethyl)amino)methyl)morpholin-3-one hydrochloride] | 20 to 50
COc1cc([C@@H](C)NCC2CN(Cc3cc(F)ccc3F)C(=O)CO2)ccc1F (single isomer, unassigned) [Example 160a, hydrochloride] | 20 to 50
COc1cccc([C@@H](C)NCC2COCCN2c2cccc(C)c2)c1 (single isomer, unassigned) [10a] | 50 to 200
Cc1cc(N2CCOC(CN[C@H](C)c3cccc4ccccc34)C2)ccc1C(=O)O (single isomer, unassigned) [Example 136b, hydrochloride] | 50 to 200
COc1cccc([C@@H](C)NCC2CN(c3cccc(C)c3)CCO2)c1 (stereo partly drawn) [Example 134, (1R)-1-(3-Methoxyphenyl)-N-((4-(m-tolyl)morpholin-2-yl)methyl)ethanamine hydrochloride] | < 20
C[C@@H](NCC1CN(C2CCCC2)C(=O)CO1)c1cccc2ccccc12 (stereo partly drawn) [Example 76, 4-Cyclopentyl-6-((((R)-1-(naphthalen-1-yl)ethyl)amino)methyl)morpholin-3-one hydrochloride] | < 20
C[C@@H](NCC1CN(CCc2ccc(F)cc2)C(=O)CO1)c1cccc2ccccc12 (single isomer, unassigned) [Example 98a, hydrochloride] | < 20
COc1cccc([C@@H](C)NCC2COCCN2c2ccc(C)cc2)c1 (stereo partly shown) [compound 8] | 50 to 200
C[C@@H](NCC1CN(c2cccc(F)c2F)C(=O)CO1)c1cccc2ccccc12 (stereo partly drawn) [compound 54, 4-(2,3-Difluorophenyl)-6-((((R)-1-(naphthalen-1-yl)ethyl)amino)methyl)morpholin-3-one hydrochloride] | < 20

Compound | EC50 [nM]
COc1cc([C@@H](C)NCC2CN(C3CCCC3)C(=O)CO2)ccc1F (stereo partly drawn) [Example 96, 4-Cyclopentyl-6-((((R)-1-(4-fluoro-3-methoxyphenyl)ethyl)amino)methyl)morpholin-3-one hydrochloride] | 50 to 200
COc1cccc([C@@H](C)NCC2COCCN2c2cccc(OC)c2)c1 (single isomer, unassigned) [6a] | 20 to 50
COc1cccc([C@@H](C)NCC2COCCN2c2ccc(F)c(F)c2)c1 (stereo partly shown) [compound 12] | 50 to 200
C[C@@H](NCC1COCCN1c1ccc(F)cc1)c1cccc2ccccc12 (stereo partly shown) [compound 17] | 20 to 50
COc1cccc([C@@H](C)NCC2COCCN2c2ccccc2)c1 (single isomer, unassigned) [11a] | < 20
Cc1ccc(N2CCOCC2CN[C@H](C)c2cccc3ccccc23)cc1 (single isomer, unassigned) [7b] | 20 to 50
COc1cccc([C@@H](C)NCC2CN(c3ccc(OC)c(F)c3)C(=O)CO2)c1 (stereo partly drawn) [Example-50, 4-(3-Fluoro-4-methoxyphenyl)-6-((((R)-1-(3-methoxyphenyl)ethyl)amino)methyl)morpholin-3-one] | 20 to 50
COc1cc([C@@H](C)NCC2CN(Cc3ccc(F)cc3)C(=O)CO2)ccc1F (single isomer, unassigned) [Example 101a, hydrochloride] | 20 to 50
C[C@@H](NCCC1CN(c2ccc(C(F)(F)F)cc2)CCO1)c1cccc2ccccc12 (stereo partly drawn) [Example 105, (1R)-1-(Naphthalen-1-yl)-N-(2-(4-(4-(trifluoromethyl)phenyl)morpholin-2-yl)ethyl)ethanamine] | 20 to 50
C[C@@H](NCC1CN(c2ccc(CC(=O)O)cc2)C(=O)CO1)c1cccc2ccccc12 (stereo partly drawn) [compound 60, 2-(4-(2-((((R)-1-(Naphthalen-1-yl)ethyl)amino)methyl)-5-oxomorpholino)phenyl)acetic acid hydrochloride] | 50 to 200
C[C@@H](NCC1CN(CC2CC2)C(=O)CO1)c1cccc2ccccc12 (single isomer, unassigned) [Example 97a, hydrochloride] | < 20
Cc1ccc(N2CCOC(CCN[C@H](C)c3cccc4ccccc34)C2)cc1CCC(=O)O (single isomer, unassigned) [Example 108a, hydrochloride] | 20 to 50
C[C@@H](NCC1CN(CC2CCCC2)C(=O)CO1)c1cccc2ccccc12 (single isomer, unassigned) [Example-69a] | 50 to 200
C[C@@H](NCC1CN(c2ccc(C(F)(F)F)cc2)CCO1)c1cccc2ccccc12 (single isomer, unassigned) [33a] | < 20
C[C@@H](NCCC1CN(c2ccc(C(F)(F)F)c(C(=O)O)c2)CCO1)c1cccc2ccccc12 (single isomer, unassigned) [Example 110a, hydrochloride] | 50 to 200
C[C@@H](NCC1COCCN1c1cccc(C(F)(F)F)c1)c1cccc2ccccc12 (single isomer, unassigned) [Example-2a] | < 20
C[C@@H](NCC1CN(c2ccccc2)CCO1)c1cccc2ccccc12 (single isomer, unassigned) [26a] | < 20
C[C@@H](NCC1COCCN1c1cccc(F)c1)c1cccc2ccccc12 (stereo partly shown) [Example-9] | < 20
COc1cccc([C@@H](C)NCC2CN(c3ccccc3)CCO2)c1 (stereo partly shown) [compound 32] | 50 to 200
COc1cccc(N2CCOCC2CN[C@H](C)c2cccc3ccccc23)c1 (single isomer, unassigned) [5b] | < 20
